Measurements taken from article PMC6394990, “Detailed characterization of the solution kinetics and thermodynamics of biotin, biocytin and HABA binding to avidin and streptavidin” (PLoS ONE, 2019).
Several values for one entry are separate records, joined by “and”; a condition that tells them apart may be missing. Equal entries are not always repeated. Where two headings read alike, the source gives them in different places.

Experiments:
avidin (AV) [1] = biological target: T1, avidin (AV) (Gallus gallus, UniProt P02701); assay: Quantum yields (QY), AV complex; assay type: physicochemical
T1 construct: purchased Calbiochem (La Jolla, CA)
Procedure: The lifetimes (τ), steady state anisotropies (rss), time-resolved anisotropies (rt) and quantum yields (QY) of the complexes (at 20 ± 0.1°C and pH 8) were collected with a dye-labeled B7 probe concentration of 20–40 nM and 1040–2080 nM of either protein (AV or SAV) to ensure that only one binding site in the tetramer was filled with a ligand (AB1 filling model).
The QY values were obtained by using a reference fluorophore of known quantum yield and were calculated according to Parker and Rees, where the reference dye was fluorescein in 0.1N sodium hydroxide solution [46]. The emission fluorescence scans were collected from 480 nm to 700 nm with the excitation light set at 460 nm provided by the xenon arc lamp described above. These measurements were made on the AB1 complexes at high protein concentration.

streptavidin (SAV) [2] = biological target: T2, streptavidin (SAV) (Streptomyces avidinii, UniProt P22629); assay: Stopped-flow association kinetics of dye-labeled biotin probes binding to streptavidin (F(t), rF(t); Arrhenius plots/global fitting); parameters: kcal/mol (from Arrhenius slope) / Eon for BFl: unit not given here; details: for halftime of association, F¯(t): probe 20 nM
T2 construct: purchased Sigma Aldrich (St. Louis, MO)
Procedure: These reactions were carried out in a buffered solution of 10 mM Tris-HCl, 100 mM KCl, 2.5 mM MgCl2 and 1 mM CaCl2 at pH 8 and only AV-BcO reactions included pH 9 and 10. […] The deglycosylation of AV (for comparative association reactions) was carried out using the provided standard protocol with endoglycosidase H [47], both with and without incubation of a denaturant solution (2% SDS and 1M 2-mercaptoethanol).
The reactions were collected with the SF instrument, described previously. […] The AC(t) and DC(t) data were baseline corrected before obtaining the signal ratio (Eq 4) as a function of time (ρt).
The constant AGain is the instrumental amplitude gain and was evaluated by solving ρ(t) using the known steady state anisotropy (rss) of the complexes which is equivalent to the r(t) at t = ∞; and H, obtained from the equivalent grating factor (G) for the filters and photo multiplier tubes in the SF. For the probes used in here G was 0.82 and H = (1-G)/(1+G) = 0.099. Knowing Again and H, the AC(t) and DC(t) signals can be solved for r(t) and F(t) (Eqs 4 and 5) and the normalized fluorescence, F¯(t) , and corrected fluorescence anisotropy, rF¯(t), were obtained when F¯(0) and rF¯(0) were scaled to 1 at t = 0.
The F¯(t) (Eq 6) is equivalent to (I||) + 2 (I⊥) and proportional to quantum yield (QYi), molar absorptivity (εi) and to the formation or disappearance of the emitting species Xi(t); and rF¯(t) including the steady state anisotropies (rss) of each fluorescent species (Eq 7).
The possible reaction models were discriminated by the squared residuals of the observed and calculated association traces of both fluorescence and anisotropy fluorescence signals, F¯(t) and rF¯(t) , respectively.

streptavidin (SAV) [3] = biological target: T2, streptavidin (SAV); assay: Intrinsic lifetime, dynamic quantum yield and fraction of non-statically quenched molecules, SAV complex; assay type: physicochemical
avidin (AV) [4] = biological target: T1, avidin (AV); assay: Intrinsic lifetime, dynamic quantum yield and fraction of non-statically quenched molecules, AV complex; assay type: physicochemical
[5] = SAV complex, mono-ionic fluorescein species

T2 sequence (P22629 25-183): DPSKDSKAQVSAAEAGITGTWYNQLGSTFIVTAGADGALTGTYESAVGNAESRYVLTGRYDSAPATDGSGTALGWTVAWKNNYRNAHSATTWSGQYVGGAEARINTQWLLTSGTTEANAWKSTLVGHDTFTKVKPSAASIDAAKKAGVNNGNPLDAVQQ
T1 sequence (P02701 25-152): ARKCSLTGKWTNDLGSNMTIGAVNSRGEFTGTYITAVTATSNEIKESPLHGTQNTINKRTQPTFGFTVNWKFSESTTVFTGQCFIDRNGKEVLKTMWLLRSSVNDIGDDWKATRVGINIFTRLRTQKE

O=C(CCCC[C@@H]1SC[C@@H]2NC(=O)N[C@@H]21)NCCNC(=O)c1ccc(-c2c3ccc(=O)cc-3oc3cc(O)ccc23)c(C(=O)O)c1 [BFl, Biotin-4-fluorescein]
Quantum Yield QY (avidin (AV) [1]; AV complex (AB1)): 0.44 ± 0.01
488, correction, absR/abs (avidin (AV) [1]; complex with AV): 1.171
QY (avidin (AV) [1]; complex with AV): 0.44 and 0.44 ± 0.01
QY multiplied by the 488 correction absR/abs (avidin (AV) [1]; complex with AV): 0.5154
dQY-AV (avidin (AV) [1]; fractional change of QY, AV complex against dye): -0.1538
kon binding to SAV, fold faster than binding to AV (streptavidin (SAV) [2]; 25°C): 4 X
Eon for BFl (streptavidin (SAV) [2]; Enthalpy block, SAV): 6.0
kon by corrected fluorescence anisotropy rF(t) (streptavidin (SAV) [2]; SAV-BFl, 10 °C, 200 nM): 3.75e+07 ± 1.2e+06 M⁻¹ s⁻¹
kon (streptavidin (SAV) [2]; SAV-BFl, 10 °C, 200 nM, read-out: kon by corrected fluorescence anisotropy rF(t)): 3.75e+07 M⁻¹ s⁻¹
kon (streptavidin (SAV) [2]; SAV-BFl, 10 °C, 200 nM, read-out: kon by fluorescence change F(t)): 3.73e+07 M⁻¹ s⁻¹
kon (streptavidin (SAV) [2]; SAV-BFl, 10 °C, read-out: kon, Average): 3.74e+07 M⁻¹ s⁻¹
kon by corrected fluorescence anisotropy rF(t) (streptavidin (SAV) [2]; SAV-BFl, 15 °C, 200 nM): 4.5e+07 ± 1e+06 M⁻¹ s⁻¹
kon (streptavidin (SAV) [2]; SAV-BFl, 15 °C, 200 nM, read-out: kon by corrected fluorescence anisotropy rF(t)): 4.5e+07 M⁻¹ s⁻¹
kon (streptavidin (SAV) [2]; SAV-BFl, 15 °C, 200 nM, read-out: kon by fluorescence change F(t)): 4.48e+07 M⁻¹ s⁻¹
kon by corrected fluorescence anisotropy rF(t) (streptavidin (SAV) [2]; SAV-BFl, 15 °C, 400 nM): 4.5e+07 ± 1.7e+06 M⁻¹ s⁻¹
kon (streptavidin (SAV) [2]; SAV-BFl, 15 °C, 400 nM, read-out: kon by corrected fluorescence anisotropy rF(t)): 4.5e+07 M⁻¹ s⁻¹
kon (streptavidin (SAV) [2]; SAV-BFl, 15 °C, 400 nM, read-out: kon by fluorescence change F(t)): 4.59e+07 M⁻¹ s⁻¹
kon by corrected fluorescence anisotropy rF(t) (streptavidin (SAV) [2]; SAV-BFl, 15 °C, 800 nM): 4.38e+07 ± 1.9e+06 M⁻¹ s⁻¹
kon (streptavidin (SAV) [2]; SAV-BFl, 15 °C, 800 nM, read-out: kon by corrected fluorescence anisotropy rF(t)): 4.38e+07 M⁻¹ s⁻¹
kon (streptavidin (SAV) [2]; SAV-BFl, 15 °C, 800 nM, read-out: kon by fluorescence change F(t)): 4.2e+07 M⁻¹ s⁻¹
kon (streptavidin (SAV) [2]; SAV-BFl, 15 °C, read-out: kon, Average): 4.44e+07 M⁻¹ s⁻¹
kon by corrected fluorescence anisotropy rF(t) (streptavidin (SAV) [2]; SAV-BFl, 20 °C, 200 nM): 6.25e+07 ± 1.6e+06 M⁻¹ s⁻¹
kon (streptavidin (SAV) [2]; SAV-BFl, 20 °C, 200 nM, read-out: kon by corrected fluorescence anisotropy rF(t)): 6.25e+07 M⁻¹ s⁻¹
kon (streptavidin (SAV) [2]; SAV-BFl, 20 °C, 200 nM, read-out: kon by fluorescence change F(t)): 6.23e+07 M⁻¹ s⁻¹
kon (streptavidin (SAV) [2]; SAV-BFl, 20 °C, read-out: kon, Average): 6.24e+07 M⁻¹ s⁻¹
kon by corrected fluorescence anisotropy rF(t) (streptavidin (SAV) [2]; SAV-BFl, 25 °C, 200 nM): 7.4e+07 ± 2e+06 M⁻¹ s⁻¹
kon (streptavidin (SAV) [2]; SAV-BFl, 25 °C, 200 nM, read-out: kon by corrected fluorescence anisotropy rF(t)): 7.4e+07 M⁻¹ s⁻¹
kon (streptavidin (SAV) [2]; SAV-BFl, 25 °C, 200 nM, read-out: kon by fluorescence change F(t)): 7.54e+07 M⁻¹ s⁻¹
kon (streptavidin (SAV) [2]; SAV-BFl, 25 °C, read-out: kon, Average): 7.47e+07 M⁻¹ s⁻¹
kon (streptavidin (SAV) [2]; SAV, 4°C, calculated by an Arrhenius plot, read-out: kon): 2.6e+07 M⁻¹ s⁻¹
ln(k) (streptavidin (SAV) [2]; SAV, 10 (283.15 K)): 17.6
k(average) (streptavidin (SAV) [2]; SAV, 10 (283.15 K), k (full value)): 4.55E+07
k(average) (streptavidin (SAV) [2]; SAV, 10 (283.15 K), k (scaled)): 45.5
ln(k) (streptavidin (SAV) [2]; SAV, 15 (288.15 K)): 17.8
k(average) (streptavidin (SAV) [2]; SAV, 15 (288.15 K), k (full value)): 5.31E+07
k(average) (streptavidin (SAV) [2]; SAV, 15 (288.15 K), k (scaled)): 53.1
ln(k) (streptavidin (SAV) [2]; SAV, 20 (293.15 K)): 17.9
k(average) (streptavidin (SAV) [2]; SAV, 20 (293.15 K), k (scaled)): 58.6
ln(k) (streptavidin (SAV) [2]; SAV, 25 (298.15 K)): 18.1
k(average) (streptavidin (SAV) [2]; SAV, 25 (298.15 K), k (full value)): 7.47E+07
k(average) (streptavidin (SAV) [2]; SAV, 25 (298.15 K), k (scaled)): 74.7
kon (streptavidin (SAV) [2]; SAV, 25°C and pH 8): 7.5 ± 0.2 x 10^7 M^-1s^-1
Ea^Forward (streptavidin (SAV) [2]; SAV, pH 8): 5.3 ± 0.3 kcal/mol
ΔG^ǂ (streptavidin (SAV) [2]; SAV, pH 8, forward): 3.3 ± 0.6 kcal/mol
ΔS^ǂ (streptavidin (SAV) [2]; SAV, pH 8, forward): 6.6 ± 0.5 cal/°K·mol
kcal/mol (from Arrhenius slope) (streptavidin (SAV) [2]; SAV, ph8): -8101
slope (Arrhenius linear fit) (streptavidin (SAV) [2]; SAV, ph8): -4076.8
kon (streptavidin (SAV) [2]; pH 8, SAV, 25°C and pH 8): ~7.5e+07 M⁻¹ s⁻¹
kon (streptavidin (SAV) [2]; pH 8, SAV, pH 8, 10°C, read-out: kon): 4.54e+07 ± 1e+06 M⁻¹ s⁻¹
kon (streptavidin (SAV) [2]; pH 8, SAV, pH 8, 15°C, read-out: kon): 5.31e+07 ± 2e+06 M⁻¹ s⁻¹
kon (streptavidin (SAV) [2]; pH 8, SAV, pH 8, 20°C, read-out: kon): 5.86e+07 ± 1.6e+06 M⁻¹ s⁻¹
kon (streptavidin (SAV) [2]; pH 8, SAV, pH 8, 25°C, read-out: kon): 7.47e+07 ± 2e+06 M⁻¹ s⁻¹
halftime of association, F¯(t) (streptavidin (SAV) [2]; SAV 200 nM, pH 8, 20°C): 77.3 ms
halftime of association, F¯(t) (streptavidin (SAV) [2]; SAV 400 nM, pH 8, 20°C): 37.7 ms
halftime of association, F¯(t) (streptavidin (SAV) [2]; SAV 800 nM, pH 8, 20°C): 20.6 ms
Natural Lifetime τ° (streptavidin (SAV) [3]; SAV complex, di-ionic fluorescein species): 4.5 ± 0.1
Fraction of Non-Statically Quenched Dye 1-S (streptavidin (SAV) [3]; [5]): 0.18 ± 0.02
Natural Lifetime τ° (streptavidin (SAV) [3]; [5]): 8.1 ± 0.1
1-S (4) = QY/F, fraction of non-statically quenched molecules (streptavidin (SAV) [3]; complex with SAV): 0.14 and 0.14 ± 0.02
F (3) = Sat/t° (streptavidin (SAV) [3]; complex with SAV): 0.80 ± 0.02
S (streptavidin (SAV) [3]; complex with SAV): 0.86
t° (2), intrinsic lifetime of the fluorescence dye (streptavidin (SAV) [3]; complex with SAV): 4.6 ± 0.1
Dynamic Quantum Yield Φ (avidin (AV) [4]; AV complex (AB1)): 0.90 ± 0.02
Fraction of Non-Statically Quenched Dye 1-S (avidin (AV) [4]; AV complex (AB1)): 0.49 ± 0.03
Natural Lifetime τ° (avidin (AV) [4]; AV complex (AB1)): 4.7 ± 0.1
1-S (4) = QY/F, fraction of non-statically quenched molecules (avidin (AV) [4]; complex with AV): 0.49 and 0.49 ± 0.03
F (3) = Sat/t° (avidin (AV) [4]; complex with AV): 0.90 ± 0.02
S (avidin (AV) [4]; complex with AV): 0.51
t° (2), intrinsic lifetime of the fluorescence dye (avidin (AV) [4]; complex with AV, in ns): 4.7 ± 0.1
